The text below walks through data of US11001563B2, “SSAO inhibitor” (SHANDONG DANHONG PHARMACEUTICAL CO., LTD., priority 2017, dated 2021).

As a reminder, the pIC50 is −log10 of the IC50, conventionally taken in molar units.

pIC50: −log10 of the molar value. Where only a bound is given, the exact number is not on record here.

The target in this series is hERG potassium channel (Homo sapiens (Human), UniProt Q12809). As to the kind of experiment: Inhibition test of hERG potassium ion channel (automatic patch clamp, CHO-hERG cells). The class given is cell-based. The protocol:
The effect of the to-be-tested compound on the potassium ion channel of hERG was detected by a fully automatic patch clamp method.
The cells stably expressing hERG potassium channel used in the experiment were obtained from CHO-hERE of Aviva Biosciences, and CHO-hERG was cultured in 5% CO2 at 37° C.
CHO-hERG cells prepared for the experiment were cultured for at least two days, and the cell density reached 75% or more. Prior to the start of the experiment, cells were digested with TrypLE and then resuspended in extracellular fluid to collect the cells.
The to-be-tested compound and the positive control Amitriptyline were dissolved in DMSO to a certain concentration of the stock solution, and then diluted according to different gradients, and finally added to the extracellular fluid in a certain ratio, and diluted to a concentration to be measured. Visual inspection was performed to see if there was any precipitation before the start of the experiment. Finally, the concentration of DMSO in the to-be-tested solution and the positive control Amitriptyline should not exceed 0.3%.
The clamping potential was kept at −80 mv, first a voltage stimulation of −50 mv was given for 80 ms to record the cell leakage current value, and then was depolarized to +20 mv to be maintained for 4800 ms, the channel of hERG was open, and then repolarized to −50 mv to be maintained 5000 ms, hERG tail current was led out and recorded, and finally, the voltage was returned to the clamping potential of −80 mv to be maintained for 3100 ms. The above voltage stimulation was repeated once every 15000 ms.
hERG QPatch^HTX experiment was performed at room temperature. A whole cell protocol, a voltage stimulation protocol and a compound detection protocol were established on the software of QPatch Assay Software 5.2 (Sophion Bioscience).
First, 30 repeated set voltage stimulations were performed, which was the baseline area for subsequent analysis, followed by the addition of 5 μl of extracellular fluid, repeated for three times. The concentration of each compound added in sequence was repeated three times in a volume of 5 μl. The cells were incubated for at least 5 min at each test concentration. During the entire recording process, the indicators needed to meet the data analysis acceptance criteria. If the standard was not met, the cells would not be included in the analysis scope, and the compounds would be retested. The above recording process was automatically operated by Qpatch analysis software. […]
In each complete current record, based on the percentage of peak current in the negative control, the percent inhibition of the concentration of each compound can be calculated. […]

hERG potassium channel, sequence (Q12809 whole entry): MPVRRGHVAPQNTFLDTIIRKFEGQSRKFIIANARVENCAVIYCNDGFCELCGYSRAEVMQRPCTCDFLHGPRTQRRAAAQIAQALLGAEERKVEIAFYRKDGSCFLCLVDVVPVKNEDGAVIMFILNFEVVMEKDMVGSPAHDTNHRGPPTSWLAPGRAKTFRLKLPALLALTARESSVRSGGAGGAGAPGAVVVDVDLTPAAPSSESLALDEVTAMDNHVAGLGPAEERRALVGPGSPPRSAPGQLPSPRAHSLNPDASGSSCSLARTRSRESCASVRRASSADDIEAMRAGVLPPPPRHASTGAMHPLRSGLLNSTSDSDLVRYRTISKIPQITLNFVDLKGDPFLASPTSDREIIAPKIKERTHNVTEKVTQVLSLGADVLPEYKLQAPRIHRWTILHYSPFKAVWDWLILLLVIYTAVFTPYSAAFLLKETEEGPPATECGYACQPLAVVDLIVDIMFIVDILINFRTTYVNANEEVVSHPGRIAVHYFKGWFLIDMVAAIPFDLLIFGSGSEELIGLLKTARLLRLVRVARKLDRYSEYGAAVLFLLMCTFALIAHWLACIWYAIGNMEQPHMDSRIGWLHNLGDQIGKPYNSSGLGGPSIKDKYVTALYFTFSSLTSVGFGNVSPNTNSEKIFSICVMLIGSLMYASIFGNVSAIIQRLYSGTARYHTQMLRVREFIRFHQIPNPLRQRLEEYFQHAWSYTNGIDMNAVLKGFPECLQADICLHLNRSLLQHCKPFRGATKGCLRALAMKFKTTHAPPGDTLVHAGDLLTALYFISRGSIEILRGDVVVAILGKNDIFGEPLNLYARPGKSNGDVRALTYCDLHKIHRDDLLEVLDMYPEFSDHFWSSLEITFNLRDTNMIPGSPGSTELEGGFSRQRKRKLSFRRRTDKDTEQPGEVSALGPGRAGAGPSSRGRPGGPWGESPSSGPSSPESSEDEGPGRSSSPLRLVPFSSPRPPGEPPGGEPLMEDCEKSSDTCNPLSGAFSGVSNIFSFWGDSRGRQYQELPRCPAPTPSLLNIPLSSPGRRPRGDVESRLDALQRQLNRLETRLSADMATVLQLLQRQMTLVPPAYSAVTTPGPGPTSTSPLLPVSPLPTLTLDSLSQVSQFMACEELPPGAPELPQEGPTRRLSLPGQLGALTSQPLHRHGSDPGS

For `Cl.Cn1nc(-c2ccc(OC/C(=C/F)CN)cc2)nc1C(F)F` [WX126], the pIC50 (QPatch whole cell patch clamp, CHO-hERG, 0.24-30.00 μM) is < 4.52. Further, where the note is “conclusion statement”, the “Inhibition of hERG potassium current (in words)” value was “weak inhibition”.
